Reference: paper PMC7669905, “A cellulose synthase-derived enzyme catalyses 3-O-glucuronosylation in saponin biosynthesis” (Nature Communications, 2020)

How the values were obtained:
Type in all cases: cell-based
GuUGT73F13 = molecular target: T1, GuUGT73F13 (Glycyrrhiza uralensis, UniProt A0A6S4QPQ3); test: in vivo yeast assay, LC-MS of 3-O-monoglucoside; settings: glycyrrhetinic acid-producing yeast strain with UGD; donor endogenous UDP-glucose
T1 construct: gene UGT73F13; cDNA clone expressed in S. cerevisiae with A. thaliana UGD
T1 sequence (A0A6S4QPQ3 1-477): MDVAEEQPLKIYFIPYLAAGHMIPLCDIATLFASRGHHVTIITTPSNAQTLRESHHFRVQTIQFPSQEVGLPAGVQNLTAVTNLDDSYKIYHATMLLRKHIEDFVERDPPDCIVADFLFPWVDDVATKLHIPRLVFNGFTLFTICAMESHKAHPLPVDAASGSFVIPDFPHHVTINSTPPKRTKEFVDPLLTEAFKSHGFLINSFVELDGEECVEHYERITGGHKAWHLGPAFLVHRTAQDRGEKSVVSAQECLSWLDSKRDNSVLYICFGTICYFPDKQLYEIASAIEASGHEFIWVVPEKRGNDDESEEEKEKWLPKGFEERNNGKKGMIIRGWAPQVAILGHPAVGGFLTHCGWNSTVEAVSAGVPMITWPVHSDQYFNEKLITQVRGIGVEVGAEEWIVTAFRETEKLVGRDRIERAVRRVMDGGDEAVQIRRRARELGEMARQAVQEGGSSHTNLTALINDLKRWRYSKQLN

LjCSyGT = molecular target: T2, LjCSyGT (Lotus japonicus, UniProt A0A7I6P8A1); test: in vivo yeast assay, LC-MS of monoglucuronide; settings: yeast strain with co-expressed UGD; endogenous UDP-glucuronic acid; 30 °C, 5 days
T2 construct: cDNA clone, ER membrane protein, expressed in S. cerevisiae with A. thaliana UGD
T2 sequence (A0A7I6P8A1 1-694): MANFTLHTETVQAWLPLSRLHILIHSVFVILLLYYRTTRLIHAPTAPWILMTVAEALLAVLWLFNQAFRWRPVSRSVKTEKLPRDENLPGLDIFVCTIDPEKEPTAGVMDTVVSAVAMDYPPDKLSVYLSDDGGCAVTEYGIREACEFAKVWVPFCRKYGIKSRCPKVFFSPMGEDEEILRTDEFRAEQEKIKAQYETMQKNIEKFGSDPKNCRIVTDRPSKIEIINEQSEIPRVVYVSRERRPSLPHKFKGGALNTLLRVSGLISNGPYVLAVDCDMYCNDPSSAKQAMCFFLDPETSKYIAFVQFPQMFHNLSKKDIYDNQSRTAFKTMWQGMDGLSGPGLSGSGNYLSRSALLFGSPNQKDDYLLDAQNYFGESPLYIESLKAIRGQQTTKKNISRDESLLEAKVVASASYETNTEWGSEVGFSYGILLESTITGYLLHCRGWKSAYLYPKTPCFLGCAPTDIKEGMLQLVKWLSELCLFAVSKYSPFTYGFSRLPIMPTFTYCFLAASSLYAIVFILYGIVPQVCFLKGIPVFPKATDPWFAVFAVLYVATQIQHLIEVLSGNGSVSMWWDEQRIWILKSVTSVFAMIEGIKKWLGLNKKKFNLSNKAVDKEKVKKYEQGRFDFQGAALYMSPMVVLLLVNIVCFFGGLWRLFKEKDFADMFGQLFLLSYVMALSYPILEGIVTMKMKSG

GuCSyGT [1] = molecular target: T3, GuCSyGT (Glycyrrhiza uralensis, UniProt A0A7I6P8N6); test: in vivo yeast assay, LC-MS of monoglucuronide; settings: yeast strain with co-expressed UGD; endogenous UDP-glucuronic acid; 30 °C, 5 days
T3 construct: full-length cDNA, ER membrane protein, expressed in S. cerevisiae with A. thaliana UGD
T3 sequence (A0A7I6P8N6 1-695): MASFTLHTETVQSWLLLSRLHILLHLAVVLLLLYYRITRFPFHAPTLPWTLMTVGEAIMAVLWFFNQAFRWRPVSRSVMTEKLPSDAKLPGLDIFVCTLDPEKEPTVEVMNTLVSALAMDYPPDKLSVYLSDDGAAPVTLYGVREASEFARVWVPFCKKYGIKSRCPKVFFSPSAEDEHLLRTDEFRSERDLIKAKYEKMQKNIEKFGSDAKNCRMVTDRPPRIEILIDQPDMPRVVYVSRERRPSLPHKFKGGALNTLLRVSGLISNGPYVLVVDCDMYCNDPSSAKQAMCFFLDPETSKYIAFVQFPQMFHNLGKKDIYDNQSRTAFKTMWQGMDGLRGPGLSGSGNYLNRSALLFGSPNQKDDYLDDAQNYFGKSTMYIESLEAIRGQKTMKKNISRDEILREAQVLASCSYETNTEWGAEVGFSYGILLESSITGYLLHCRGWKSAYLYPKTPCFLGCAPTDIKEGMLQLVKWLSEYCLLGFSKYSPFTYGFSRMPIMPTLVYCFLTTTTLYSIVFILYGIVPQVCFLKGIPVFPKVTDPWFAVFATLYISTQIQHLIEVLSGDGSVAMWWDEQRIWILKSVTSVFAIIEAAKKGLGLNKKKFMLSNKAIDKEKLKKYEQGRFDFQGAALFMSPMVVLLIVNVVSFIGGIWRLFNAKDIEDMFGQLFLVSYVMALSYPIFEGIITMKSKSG

GmCSyGT1 = molecular target: T4, GmCSyGT1 (Glycine max, UniProt A0A7I6PD81); test: in vivo yeast assay, LC-MS of monoglucuronide; settings: yeast strain with co-expressed UGD; endogenous UDP-glucuronic acid; 30 °C, 5 days
T4 construct: full-length cDNA, membrane protein, expressed in S. cerevisiae with A. thaliana UGD
T4 sequence (A0A7I6PD81 1-699): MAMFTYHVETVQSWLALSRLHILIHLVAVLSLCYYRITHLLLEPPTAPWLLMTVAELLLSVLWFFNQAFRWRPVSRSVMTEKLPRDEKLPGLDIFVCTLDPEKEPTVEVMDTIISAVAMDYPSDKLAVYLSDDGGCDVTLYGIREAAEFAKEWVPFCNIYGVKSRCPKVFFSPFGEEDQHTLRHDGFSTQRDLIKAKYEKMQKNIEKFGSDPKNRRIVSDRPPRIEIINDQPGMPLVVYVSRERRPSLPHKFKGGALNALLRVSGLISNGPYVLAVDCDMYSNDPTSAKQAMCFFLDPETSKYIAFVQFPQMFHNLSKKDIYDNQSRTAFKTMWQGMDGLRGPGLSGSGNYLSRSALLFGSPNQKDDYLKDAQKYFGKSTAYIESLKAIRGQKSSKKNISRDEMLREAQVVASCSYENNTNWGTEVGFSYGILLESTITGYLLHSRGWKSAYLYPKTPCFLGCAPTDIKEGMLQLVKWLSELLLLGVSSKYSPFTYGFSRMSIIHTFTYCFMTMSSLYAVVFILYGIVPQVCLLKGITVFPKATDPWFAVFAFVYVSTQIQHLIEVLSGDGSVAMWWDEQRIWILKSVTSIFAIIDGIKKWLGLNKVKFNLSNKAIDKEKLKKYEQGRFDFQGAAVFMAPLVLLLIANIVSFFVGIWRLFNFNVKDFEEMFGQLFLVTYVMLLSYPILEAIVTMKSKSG

UGT73P12 = molecular target: T5, UGT73P12 (Glycyrrhiza uralensis, UniProt A0A5A4WN00); test: de novo pathway in yeast, LC-MS of glycyrrhizin; settings: donor endogenous UDP-glucuronic acid (UGD); acceptor made in situ by CSyGT
T5 construct: expressed in S. cerevisiae in the reconstructed glycyrrhizin pathway (strain GL)
T5 sequence (A0A5A4WN00 1-506): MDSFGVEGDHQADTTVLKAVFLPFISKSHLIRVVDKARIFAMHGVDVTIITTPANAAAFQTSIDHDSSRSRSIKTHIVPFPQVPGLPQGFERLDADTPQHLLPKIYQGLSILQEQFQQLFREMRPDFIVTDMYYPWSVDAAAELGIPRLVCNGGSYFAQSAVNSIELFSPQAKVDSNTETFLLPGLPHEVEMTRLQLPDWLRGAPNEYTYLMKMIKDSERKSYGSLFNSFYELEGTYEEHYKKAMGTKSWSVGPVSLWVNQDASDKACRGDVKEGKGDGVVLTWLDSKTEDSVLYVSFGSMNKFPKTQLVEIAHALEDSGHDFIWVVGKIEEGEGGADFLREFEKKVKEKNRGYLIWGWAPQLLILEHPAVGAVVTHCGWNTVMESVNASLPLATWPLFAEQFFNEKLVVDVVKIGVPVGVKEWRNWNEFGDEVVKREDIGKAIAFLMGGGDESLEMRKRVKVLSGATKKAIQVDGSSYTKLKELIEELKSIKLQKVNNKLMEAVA

GuCSyGT [2] = molecular target: T3, GuCSyGT; test: in vivo yeast assay, LC-MS of products with and without UGD; settings: sugar donor; acceptor glycyrrhetinic acid
GmCSyGT3 = molecular target: T6, GmCSyGT3 (Glycine max, UniProt A0A7I6P8J7); test: yeast feeding assay, LC-MS of monoglucuronide; settings: 10 µM substrate fed to yeast with co-expressed UGD
T6 construct: full-length cDNA, membrane protein, expressed in S. cerevisiae with A. thaliana UGD
T6 sequence (A0A7I6P8J7 1-696): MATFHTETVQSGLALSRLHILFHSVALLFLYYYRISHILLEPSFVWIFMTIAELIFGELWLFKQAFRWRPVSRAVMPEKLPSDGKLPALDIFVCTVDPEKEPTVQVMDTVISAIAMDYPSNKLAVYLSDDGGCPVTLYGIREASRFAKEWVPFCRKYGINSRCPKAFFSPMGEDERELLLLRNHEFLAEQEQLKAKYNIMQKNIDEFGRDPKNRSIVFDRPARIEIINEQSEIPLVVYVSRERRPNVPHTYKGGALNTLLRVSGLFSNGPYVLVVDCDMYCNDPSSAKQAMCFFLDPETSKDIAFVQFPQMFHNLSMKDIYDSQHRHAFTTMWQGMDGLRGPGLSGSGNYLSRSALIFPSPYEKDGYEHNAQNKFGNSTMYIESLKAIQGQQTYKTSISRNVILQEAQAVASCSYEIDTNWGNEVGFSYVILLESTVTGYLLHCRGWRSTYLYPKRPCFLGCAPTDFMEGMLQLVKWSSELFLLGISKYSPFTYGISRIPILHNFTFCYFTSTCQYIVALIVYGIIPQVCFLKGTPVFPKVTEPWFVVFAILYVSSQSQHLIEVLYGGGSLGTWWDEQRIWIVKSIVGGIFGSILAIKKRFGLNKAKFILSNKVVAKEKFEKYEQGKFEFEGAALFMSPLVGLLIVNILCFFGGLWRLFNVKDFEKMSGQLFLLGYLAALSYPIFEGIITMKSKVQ

SMILES	in vivo yeast assay, LC-MS of monoglucuronide (LjCSyGT)	in vivo yeast assay, LC-MS of monoglucuronide (GmCSyGT1)	yeast feeding assay, LC-MS of monoglucuronide (GmCSyGT3)	other results
CC1(C)[C@@H](O)CC[C@]2(C)[C@H]3C(=O)C=C4[C@@H]5C[C@@](C)(C(=O)O)CC[C@]5(C)CC[C@@]4(C)[C@]3(C)CC[C@@H]12 [GA, glycyrrhetinic acid]	The low catalytic activity of LjCSyGT for glycyrrhetinic and oleanolic acids	All of the CSyGT-expressing strains produced the corresponding monoglucuronides	–	in vivo yeast assay, LC-MS of 3-O-monoglucoside (GuUGT73F13): GuUGT73F13, which catalyses 3-O-glucosylation of glycyrrhetinic acid; in vivo yeast assay, LC-MS of monoglucuronide (GuCSyGT [1]): All of the CSyGT-expressing strains produced the corresponding monoglucuronides
CC1(C)[C@@H](O[C@@H]2O[C@H](C(=O)O)[C@@H](O)[C@H](O)[C@H]2O)CC[C@]2(C)[C@H]3C(=O)C=C4[C@@H]5C[C@@](C)(C(=O)O)CC[C@]5(C)CC[C@@]4(C)[C@]3(C)CC[C@@H]12 [GA–GlcA, glycyrrhetinic acid-3-O-monoglucuronide]	–	–	–	de novo pathway in yeast, LC-MS of glycyrrhizin (UGT73P12): Since the product is quickly converted into glycyrrhizin in GL strains
O=C(O)[C@H]1O[C@H](OP(=O)(O)OP(=O)(O)OC[C@H]2O[C@@H](n3ccc(=O)[nH]c3=O)[C@H](O)[C@@H]2O)[C@H](O)[C@@H](O)[C@@H]1O [UDP-glucuronic acid]	–	–	–	in vivo yeast assay, LC-MS of products with and without UGD (GuCSyGT [2]): GuCSyGT preferentially selects UDP-glucuronic acid as the sugar donor
C=C(C)[C@@H]1CC[C@]2(C(=O)O)CC[C@]3(C)[C@H](CC[C@@H]4[C@@]5(C)CC[C@H](O)C(C)(C)[C@@H]5CC[C@]43C)[C@@H]12 [betulinic acid]	–	–	GmCSyGT3 showed catalytic activity against the triterpenoid aglycones, ursolic acid and betulinic acid	–
CC1(C)C[C@@H](O)[C@]2(C)CC[C@]3(C)C(=CC[C@@H]4[C@@]5(C)CC[C@H](O)[C@](C)(CO)[C@@H]5CC[C@]43C)[C@@H]2C1 [soyasapogenol B]	all three had similar levels of catalytic activity for soyasapogenol B	all three had similar levels of catalytic activity for soyasapogenol B	–	–
C[C@H]1[C@H](C)CC[C@]2(C(=O)O)CC[C@]3(C)C(=CC[C@@H]4[C@@]5(C)CC[C@H](O)C(C)(C)[C@@H]5CC[C@]43C)[C@H]12 [ursolic acid]	–	–	GmCSyGT3 showed catalytic activity against the triterpenoid aglycones, ursolic acid and betulinic acid	–
